# In US9504729B2, “Antiangiogenic small molecules and methods of use” (The United States of America, as represented by the …, priority 2009, dated 2016):
# Key:
# FGFR1 = FGFR1 (Homo sapiens, UniProt P11362); assay: SelectScreen kinase activity profiling, FGFR1; type: biochemical; parameters: concentration or dose not given beside the values; settings: for Mean % Inhibition: mean of two independent trials
# Text: To characterize the RTK inhibitory activity of the antiangiogenic SMs described herein, 36 compounds were chosen and screened using Invitrogen's SelectScreen® kinase activity profiling service (described on-line at tools.invitrogen.com/content.cfm?pageid=10413#selection). VEGFR1 and FGFR2 RTK inhibitory activities were studied. […] Overall, a small minority of the SMs tested had any substantial kinase inhibitory activity. This observation supports a mechanism of antiangiogenic action other than RTK inhibition for most of the SMs described herein.
# KDR(VEGFR2) = KDR(VEGFR2) (Homo sapiens, UniProt P35968); assay: SelectScreen kinase activity profiling, KDR(VEGFR2); type: biochemical; parameters: % Inhibition / Mean % Inhibition: concentration or dose not given beside the values; settings: KDR(VEGFR2); for Mean % Inhibition: mean of two independent trials
# [1] = first of two independent trials
# [2] = second of two independent trials
# KDR(VEGFR2), sequence (P35968 20-1356): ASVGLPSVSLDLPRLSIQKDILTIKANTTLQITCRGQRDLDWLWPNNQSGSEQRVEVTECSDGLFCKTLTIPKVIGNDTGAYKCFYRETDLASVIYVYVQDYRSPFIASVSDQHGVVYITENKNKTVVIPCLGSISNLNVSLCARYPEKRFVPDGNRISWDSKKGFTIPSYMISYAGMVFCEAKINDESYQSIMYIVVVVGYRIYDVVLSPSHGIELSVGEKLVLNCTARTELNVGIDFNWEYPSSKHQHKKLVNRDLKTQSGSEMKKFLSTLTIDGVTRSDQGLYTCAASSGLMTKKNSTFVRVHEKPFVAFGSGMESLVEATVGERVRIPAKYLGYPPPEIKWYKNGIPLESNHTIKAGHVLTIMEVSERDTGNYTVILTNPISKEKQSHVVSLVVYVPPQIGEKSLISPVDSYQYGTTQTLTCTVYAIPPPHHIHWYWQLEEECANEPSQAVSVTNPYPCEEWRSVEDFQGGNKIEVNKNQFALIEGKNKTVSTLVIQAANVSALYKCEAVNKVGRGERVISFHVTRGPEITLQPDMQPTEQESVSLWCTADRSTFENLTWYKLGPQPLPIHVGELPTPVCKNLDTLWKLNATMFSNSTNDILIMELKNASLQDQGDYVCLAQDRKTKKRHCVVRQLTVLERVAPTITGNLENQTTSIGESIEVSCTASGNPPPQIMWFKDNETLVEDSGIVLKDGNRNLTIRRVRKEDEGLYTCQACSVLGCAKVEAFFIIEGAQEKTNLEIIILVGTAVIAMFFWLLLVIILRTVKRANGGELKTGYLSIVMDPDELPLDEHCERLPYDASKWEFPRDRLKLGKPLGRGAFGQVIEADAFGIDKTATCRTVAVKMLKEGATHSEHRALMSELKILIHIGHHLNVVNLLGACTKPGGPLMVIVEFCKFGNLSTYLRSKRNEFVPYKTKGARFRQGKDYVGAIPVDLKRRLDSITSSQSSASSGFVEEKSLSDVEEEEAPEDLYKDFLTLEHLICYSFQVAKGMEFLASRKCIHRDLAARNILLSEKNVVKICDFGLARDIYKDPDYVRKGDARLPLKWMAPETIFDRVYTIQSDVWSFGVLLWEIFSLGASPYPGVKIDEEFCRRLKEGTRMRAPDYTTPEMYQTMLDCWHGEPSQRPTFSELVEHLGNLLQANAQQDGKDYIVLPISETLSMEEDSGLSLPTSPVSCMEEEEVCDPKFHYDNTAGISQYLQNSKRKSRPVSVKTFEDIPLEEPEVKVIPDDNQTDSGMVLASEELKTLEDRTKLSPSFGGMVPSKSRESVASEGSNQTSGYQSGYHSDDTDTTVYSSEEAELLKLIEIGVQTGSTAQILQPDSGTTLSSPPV
# FGFR1, sequence (P11362 398-822 limits assumed): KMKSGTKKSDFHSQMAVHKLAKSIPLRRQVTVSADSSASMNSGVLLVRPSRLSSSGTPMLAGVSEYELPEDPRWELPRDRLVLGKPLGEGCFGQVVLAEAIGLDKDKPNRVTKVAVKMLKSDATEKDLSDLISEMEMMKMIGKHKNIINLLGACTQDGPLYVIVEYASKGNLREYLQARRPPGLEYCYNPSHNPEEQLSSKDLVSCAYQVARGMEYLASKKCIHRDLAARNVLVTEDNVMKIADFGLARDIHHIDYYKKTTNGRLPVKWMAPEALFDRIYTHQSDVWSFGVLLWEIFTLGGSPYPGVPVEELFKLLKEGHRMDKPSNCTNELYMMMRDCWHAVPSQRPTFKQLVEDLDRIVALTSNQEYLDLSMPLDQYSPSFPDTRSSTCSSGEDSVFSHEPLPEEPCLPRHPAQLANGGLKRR
SMILES,% Inhibition (FGFR1; [1]),Mean % Inhibition (FGFR1),% Inhibition (FGFR1; [2]),% Inhibition (KDR(VEGFR2); [1]),Mean % Inhibition (KDR(VEGFR2)),% Inhibition (KDR(VEGFR2); [2])
CCC(=O)OCN1C(=O)C=CC1=O [compound 19630],2%,0%,−2%,90%,90%,91%
O=C1C(=Cc2ccccc2)C(NC2CCCCC2)c2ccccc21 (stereo not drawn) [compound 150117],2%,5%,7%,28%,26%,24%
COc1ccc(CC2C(=O)NC(C)C(=O)N(C)C3Cc4ccc(cc4)Oc4cc(ccc4O)CC(C(=O)NC(C)C(=O)NC(C)C(=O)N2C)N(C)C3=O)cc1 (stereo not drawn) [compound 259969],3%,3%,3%,0%,5%,9%
COc1cc2cc(c1Cl)N(C)C(=O)CC(OC(=O)C(C)C)C1(C)OC1C(C)C1CC(O)(NC(=O)O1)C(OC)/C=C/C=C(\C)C2 (stereo not drawn) [compound 292222],2%,3%,5%,8%,7%,7%
CC1CCN(CC[S-])CC1.O.O.[Cl][Pt+] [compound 292596],4%,4%,4%,9%,14%,18%
